From patent US9963434B2, “N-arylmethyl sulfonamide negative modulators of NR2A” (LUC THERAPEUTICS, priority 2013, dated 2018) come the findings set out here.

Where two headings read alike, the source gives them in different places.

For the assay, the target named is NR1/NR2A (Homo sapiens (Human), UniProt Q05586+Q12879). The assay can be described thus: FDSS Ca2+ influx inhibition assay in HEK293 cells expressing NR1/NR2A. Format: cell-based. Particulars: 3 μM glutamate, 3 μM glycine, 1 mM Ca2+. The procedure, abridged: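 Fluo-8-loaded HEK293 NR1/NR2A cells preincubated 10 min with compound at 10 μM final (0.1% DMSO) in Ca2+/Mg2+-free HBSS with 20 mM HEPES. Stimulated with 3 μM glutamate, 3 μM glycine, 1 mM Ca2+; FDSS recording for 3 min, end/baseline fluorescence ratio compared with MK801.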

Setting [1] is: inhibition relative to MK801, read-out: NR2A IC50.

Sequence of NR1/NR2A (Q12879 23-1464, other chains not shown): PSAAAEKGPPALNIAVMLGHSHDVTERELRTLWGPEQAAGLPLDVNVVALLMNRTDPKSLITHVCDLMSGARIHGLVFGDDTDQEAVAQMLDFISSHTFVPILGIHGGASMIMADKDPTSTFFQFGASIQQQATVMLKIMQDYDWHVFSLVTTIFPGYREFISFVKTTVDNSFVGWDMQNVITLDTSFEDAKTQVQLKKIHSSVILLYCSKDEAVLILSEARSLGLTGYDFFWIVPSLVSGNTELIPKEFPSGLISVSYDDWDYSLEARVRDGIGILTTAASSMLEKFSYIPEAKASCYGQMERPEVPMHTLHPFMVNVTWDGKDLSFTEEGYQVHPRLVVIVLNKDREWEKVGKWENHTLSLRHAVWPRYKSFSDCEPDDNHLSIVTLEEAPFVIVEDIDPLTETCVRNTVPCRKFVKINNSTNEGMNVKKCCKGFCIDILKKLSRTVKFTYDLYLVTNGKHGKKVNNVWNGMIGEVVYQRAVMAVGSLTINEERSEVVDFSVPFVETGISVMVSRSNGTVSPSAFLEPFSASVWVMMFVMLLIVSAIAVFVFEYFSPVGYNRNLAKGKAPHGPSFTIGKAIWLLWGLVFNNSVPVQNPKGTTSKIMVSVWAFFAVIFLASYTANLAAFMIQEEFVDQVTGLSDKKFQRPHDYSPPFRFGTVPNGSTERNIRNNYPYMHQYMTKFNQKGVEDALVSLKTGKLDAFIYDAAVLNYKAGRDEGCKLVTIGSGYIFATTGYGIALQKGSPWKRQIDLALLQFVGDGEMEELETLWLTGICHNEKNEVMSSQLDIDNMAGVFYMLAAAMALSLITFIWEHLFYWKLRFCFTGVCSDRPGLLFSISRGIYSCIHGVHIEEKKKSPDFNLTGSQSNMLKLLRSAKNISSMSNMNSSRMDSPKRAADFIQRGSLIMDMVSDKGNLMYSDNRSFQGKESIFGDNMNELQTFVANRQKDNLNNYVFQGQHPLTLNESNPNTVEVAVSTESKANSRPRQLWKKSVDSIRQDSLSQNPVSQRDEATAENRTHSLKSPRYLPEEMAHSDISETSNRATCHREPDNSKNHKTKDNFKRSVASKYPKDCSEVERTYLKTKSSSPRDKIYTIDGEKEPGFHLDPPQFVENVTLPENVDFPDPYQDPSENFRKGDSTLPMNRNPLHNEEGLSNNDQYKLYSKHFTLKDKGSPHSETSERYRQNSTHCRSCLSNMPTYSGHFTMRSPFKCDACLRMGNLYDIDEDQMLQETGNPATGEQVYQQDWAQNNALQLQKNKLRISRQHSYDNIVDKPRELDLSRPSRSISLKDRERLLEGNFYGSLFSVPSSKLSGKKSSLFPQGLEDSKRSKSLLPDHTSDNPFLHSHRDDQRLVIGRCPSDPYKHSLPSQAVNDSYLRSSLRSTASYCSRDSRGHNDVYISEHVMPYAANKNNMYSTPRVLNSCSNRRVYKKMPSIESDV

Turning to `Cc1ncc(CNC(=O)c2cnc(CNS(=O)(=O)c3cc(Cl)ccc3F)cn2)s1` [5-(5-chloro-2-fluorobenzenesulfon-amidomethyl)-N-[(2-methyl-1,3-thiazol-5-yl)methyl]pyrazine-2-carboxamide], the IC50 was 10 µM under setting [1] and > 10 µM (read-out: Binned Activity). For `Cc1ncc(CNC(=O)c2cnc(CNC(=O)c3cc(Cl)ccc3F)cn2)s1` [5-{[(5-chloro-2-fluorophenyl)formamido]methyl}-N-[(2-methyl-1,3-thiazol-5-yl)methyl]pyrazine-2-carboxamide], in that order: 10 µM and > 10 µM. For `O=C(NCc1ccncn1)c1ccc(CNS(=O)(=O)c2ccc(F)c(Cl)c2)nc1` [6-(3-chloro-4-fluorobenzenesulfon-amidomethyl)-N-(pyrimidin-4-ylmethyl)pyridine-3-carboxamide], in that order: 10 µM and > 10 µM. For the compound `COc1ccc(CNC(=O)c2ccc(CNS(=O)(=O)c3ccc(F)c(Cl)c3)nn2)cc1` [6-(3-chloro-4-fluorobenzenesulfon-amidomethyl)-N-[(4-methoxyphenyl)methyl] pyridazine-3-carboxamide], the IC50 by setting is: under setting [1], 10 µM; (read-out: Binned Activity) > 10 µM. For `Cc1ncc(CNC(=O)c2ccc(CNS(=O)(=O)c3cn(C)cn3)cn2)s1` [N-[(2-methyl-1,3-thiazol-5-yl)methyl]-5-(1-methyl-1H-imidazole-4-sulfonamidomethyl) pyridine-2-carboxamide], in that order: 10 µM and > 10 µM.

Consider `O=C(NCc1ccccn1)c1ccc(CNS(=O)(=O)c2ccc(F)c(Cl)c2)nn1` [6-(3-chloro-4-fluorobenzenesulfon-amidomethyl)-N-(pyridin-2-ylmethyl)pyridazine-3-carboxamide], for which the IC50 under setting [1] was 10 µM and the IC50 (read-out: Binned Activity) is > 10 µM. Take `Cc1nnc(CNC(=O)c2ccc(CNS(=O)(=O)c3ccc(F)c(Cl)c3)cn2)s1` [5-(3-chloro-4-fluorobenzenesulfon-amidomethyl)-N-[(5-methyl-1,3,4-thiadiazol-2-yl)methyl]pyridine-2-carboxamide]: the IC50 (read-out: Binned Activity) lay in the range of 1 to 10 µM.

In the case of `Cc1nnc(CNC(=O)c2cnc(CNS(=O)(=O)c3ccc(F)c(Cl)c3)cn2)s1` [5-(3-chloro-4-fluorobenzenesulfon-amidomethyl)-N-[(5-methyl-1,3,4-thiadiazol-2-yl)methyl]pyrazine-2-carboxamide], the IC50 (read-out: Binned Activity) was 0.1 to 1 µM. Same read-out and setting: the same measure for `COc1cc(CNC(=O)c2ccc(CNS(=O)(=O)c3ccc(F)c(Cl)c3)cn2)ccn1` [5-(3-chloro-4-fluorobenzenesulfon-amidomethyl)-N-[(2-methoxypyridin-4-yl)methyl]pyridine-2-carboxamide]: 1 to 10 µM. Turning to `Cc1ncc(CNC(=O)c2ccc(CNS(=O)(=O)c3ccccc3F)cn2)s1` [5-(2-fluorobenzenesulfon-amidomethyl)-N-[(2-methyl-1,3-thiazol-5-yl)methyl]pyridine-2-carboxamide], the IC50 runs as follows: under setting [1], 10 µM; (read-out: Binned Activity) > 10 µM. In the case of `O=C(NCc1nccs1)c1ccc(CNS(=O)(=O)c2ccc(F)c(Cl)c2)cn1` [5-(3-chloro-4-fluorobenzenesulfon-amidomethyl)-N-(1,3-thiazol-2-ylmethyl)pyridine-2-carboxamide], for the setting “read-out: Binned Activity”, the IC50 fell in the range of 1 to 10 µM. On the same count and under the same terms, with `CC(NC(=O)c1ccc(CNS(=O)(=O)c2ccc(F)c(Cl)c2)cn1)c1ccco1` (stereo not drawn) [5-(3-chloro-4-fluorobenzenesulfon-amidomethyl)-N-[1-(furan-2-yl)ethyl]pyridine-2-carboxamide] the figure was 1 to 10 µM. For the compound `Cc1ncc(CNC(=O)c2cnc(CNS(=O)(=O)c3ccccc3F)cn2)s1` [5-(2-fluorobenzenesulfon-amidomethyl)-N-[(2-methyl-1,3-thiazol-5-yl)methyl]pyrazine-2-carboxamide], the IC50 by setting is: under setting [1], 10 µM; (read-out: Binned Activity) > 10 µM. On to `Cc1cccc(CNC(=O)c2cnc(CNS(=O)(=O)c3ccc(F)c(Cl)c3)cn2)n1` [5-(3-chloro-4-fluorobenzenesulfon-amidomethyl)-N-[(6-methylpyridin-2-yl)methyl]pyrazine-2-carboxamide], for which the IC50 runs as follows: under setting [1], 10 µM; (read-out: Binned Activity) > 10 µM.

Take `O=C(NCc1ccsc1)c1ccc(CNS(=O)(=O)c2ccc(F)c(Cl)c2)cn1` [5-(3-chloro-4-fluorobenzenesulfon-amidomethyl)-N-(thiophen-3-ylmethyl)pyridine-2-carboxamide]: the IC50 reads like this: under setting [1], 10 µM; (read-out: Binned Activity) > 10 µM.

On to `COc1ccc(CNC(=O)c2cnc(CNS(=O)(=O)c3ccc(F)c(Cl)c3)cn2)cn1` [5-(3-chloro-4-fluorobenzenesulfon-amidomethyl)-N-[(6-methoxypyridin-3-yl)methyl]pyrazine-2-carboxamide], for which the IC50 by setting is: under setting [1], 10 µM; (read-out: Binned Activity) > 10 µM. Take `Cc1ccc(CNC(=O)c2ccc(CNS(=O)(=O)c3ccc(F)c(Cl)c3)cn2)s1` [5-(3-chloro-4-fluorobenzenesulfon-amidomethyl)-N-[(5-methylthiophen-2-yl)methyl]pyridine-2-carboxamide]: the IC50 was 10 µM under setting [1] and > 10 µM (read-out: Binned Activity). On to `CN(C)CCCCNC(=O)c1ccc(CNS(=O)(=O)c2ccc(F)c(Cl)c2)nc1` [6-(3-chloro-4-fluorobenzenesulfon-amidomethyl)-N-[4-(dimethylamino)butyl] pyridine-3-carboxamide], for which the IC50 is 10 µM under setting [1] and > 10 µM (read-out: Binned Activity). On to `COc1cc(CNC(=O)c2cnc(CNS(=O)(=O)c3ccc(F)c(Cl)c3)cn2)ccn1` [5-(3-chloro-4-fluorobenzenesulfon-amidomethyl)-N-[(2-methoxypyridin-4-yl)methyl]pyrazine-2-carboxamide], for which the IC50 (read-out: Binned Activity) fell in the range of 0.1 to 1 µM.

Take `O=C(NCc1cccnc1)c1cnc(CNS(=O)(=O)c2ccc(F)c(Cl)c2)cn1` [5-(3-chloro-4-fluorobenzenesulfon-amidomethyl)-N-(pyridin-3-ylmethyl)pyrazine-2-carboxamide]: for the setting “read-out: Binned Activity”, the IC50 was 0.1 to 1 µM. `Cc1ncc(CNC(=O)c2cnc(CNS(=O)(=O)c3ccc(Cl)c(F)c3)cn2)s1` [5-(4-chloro-3-fluorobenzenesulfon-amidomethyl)-N-[(2-methyl-1,3-thiazol-5-yl)methyl]pyrazine-2-carboxamide]: the IC50 was 10 µM under setting [1] and > 10 µM (read-out: Binned Activity). With `Cc1nc(CNC(=O)c2cnc(CNS(=O)(=O)c3ccc(F)c(Cl)c3)cn2)cs1` [5-(3-chloro-4-fluorobenzenesulfon-amidomethyl)-N-[(2-methyl-1,3-thiazol-4-yl)methyl]pyrazine-2-carboxamide], the IC50 is, setting by setting: under setting [1], 10 µM; (read-out: Binned Activity) > 10 µM. With `CC(NC(=O)c1ccc(CNS(=O)(=O)c2ccc(F)c(Cl)c2)cn1)c1cccs1` (stereo not drawn) [5-(3-chloro-4-fluorobenzenesulfon-amidomethyl)-N-[1-(thiophen-2-yl)ethyl]pyridine-2-carboxamide], the IC50 (read-out: Binned Activity) lay in the range of 1 to 10 µM. On to `Cc1ncc(CNC(=O)c2cnc(CNC(=O)c3ccc(Cl)c(Cl)c3)cn2)s1` [5-{[(3,4-dichlorophenyl)form-amido]methyl}-N-[(2-methyl-1,3-thiazol-5-yl)methyl]pyrazine-2-carboxamide], for which the IC50 was 10 µM under setting [1] and > 10 µM (read-out: Binned Activity). Turning to `Cc1ncc(CNC(=O)c2cnc(CNC(=O)c3cc(Cl)ccc3F)c(C)n2)s1` [5-{[(5-chloro-2-fluorophenyl)formamido]methyl}-6-methyl-N-[(2-methyl-1,3-thiazol-5-yl)methyl]pyrazine-2-carboxamide], the IC50 reads like this: under setting [1], 10 µM; (read-out: Binned Activity) > 10 µM. Take `Cc1ncc(C(C)NC(=O)c2cnc(CNS(=O)(=O)c3ccc(F)c(Cl)c3)cn2)s1` (stereo not drawn) [5-(3-chloro-4-fluorobenzenesulfon-amidomethyl)-N-[1-(2-methyl-1,3-thiazol-5-yl)ethyl]pyrazine-2-carboxamide]: the IC50 (read-out: Binned Activity) lay in the range of 0.1 to 1 µM. For the compound `CC(=O)N1CCc2cc(S(=O)(=O)NCc3cnc(C(=O)NCc4cnc(C)s4)cn3)ccc21` [5-(1-acetyl-2,3-dihydro-1H-indole-5-sulfonamidomethyl)-N-[(2-methyl-1,3-thiazol-5-yl)methyl]pyrazine-2-carboxamide], the IC50 is 10 µM under setting [1] and > 10 µM (read-out: Binned Activity). As to `Cn1cccc1CNC(=O)c1cnc(CNS(=O)(=O)c2ccc(F)c(Cl)c2)cn1` [5-(3-chloro-4-fluorobenzenesulfon-amidomethyl)-N-[(1-methyl-1H-pyrrol-2-yl)methyl]pyrazine-2-carboxamide], the IC50 (read-out: Binned Activity) fell in the range of 1 to 10 µM.

Take `Cc1cccc(CNC(=O)c2ccc(CNS(=O)(=O)c3ccc(F)c(Cl)c3)nc2)n1` [6-(3-chloro-4-fluorobenzenesulfon-amidomethyl)-N-[(6-methylpyridin-2-yl)methyl]pyridine-3-carboxamide]: the IC50 reads like this: under setting [1], 10 µM; (read-out: Binned Activity) > 10 µM. Take `Cc1ncc(CNC(=O)c2cnc(CNC(=O)c3ccc(Cl)cc3Cl)cn2)s1` [5-{[(2,4-dichlorophenyl)form-amido]methyl}-N-[(2-methyl-1,3-thiazol-5-yl)methyl]pyrazine-2-carboxamide]: the IC50 reads like this: under setting [1], 10 µM; (read-out: Binned Activity) > 10 µM.

Take `O=C(NCc1cccnc1)c1ccc(CNS(=O)(=O)c2ccc(F)c(Cl)c2)nc1` [6-(3-chloro-4-fluorobenzenesulfon-amidomethyl)-N-(pyridin-3-ylmethyl)pyridine-3-carboxamide]: the IC50 (read-out: Binned Activity) is > 10 µM. The same measure, in the same setting: with `Cc1ncc(CNC(=O)c2cnc(CNS(=O)(=O)c3cc(Cl)ccc3F)c(C)n2)s1` [5-(5-chloro-2-fluorobenzenesulfon-amidomethyl)-6-methyl-N-[(2-methyl-1,3-thiazol-5-yl)methyl]pyrazine-2-carboxamide] the figure was 1 to 10 µM. As for `O=C(NCc1ncccn1)c1ccc(CNS(=O)(=O)c2ccc(F)c(Cl)c2)cn1` [5-(3-chloro-4-fluorobenzenesulfon-amidomethyl)-N-(pyrimidin-2-ylmethyl)pyridine-2-carboxamide], the IC50 was 10 µM under setting [1] and > 10 µM (read-out: Binned Activity).
